The test system of one series is HSVI. The settings on record: De Clerq et al.; cited from earlier work.
Series [1] has as its system Rauscher Murine Leukaemia Virus. Nature of the series: Mouse model of retrovirus-induced malignancy (splenomegaly). The series is classed as in vivo.
Series [2] has as its system AIDV. The series is classed as cell-based. Conditions: same cell-line transformed by HTLV-I and super-infected with AIDV.
The next series concerns HTLV-I. In words: In vitro replication of HTLV-I. The series is classed as cell-based. Conditions: concentrations as low as.
Another series relates to vaccinia. The settings on record: De Clerq et al.; cited from earlier work.
Series [3] relates to varicella zoster virus (VZV). The settings on record: De Clerq et al.; cited from earlier work.
Series [4] has as its system AIDV. Nature of the series: AIDV infection of H9 human lymphoblastoid cell-line. The series is classed as cell-based. The settings on record: concentrations as low as; up to 20 hours after infection.
For series [5], the system named is AIDV. Nature of the series: AIDV infection of U937 cells, PHA-stimulated white blood cells and cultured peripheral blood lymphocytes. In kind it is cell-based.
Series [6] has as its system AIDV. In kind it is cell-based.
The test system of series [7] is Friend Leukaemia Virus (FLV). The settings on record: cited from earlier work.
The target in series [8] is T1, AIDV reverse transcriptase (Human immunodeficiency virus type 1 group M subtype B, UniProt P04585).
T1 construct: purified AIDV reverse transcriptase
In words: Inhibition of purified AIDV reverse transcriptase. In kind it is biochemical. The settings on record: purified enzyme; for activity of AIDV reverse transcriptase: in vitro. The source says:
This property is both unusual and valuable for the treatment and prophylaxis of CNS infections caused by human retroviruses.

Series [9] has as its system avian myeloblastosis virus and Moloney murine leukaemia virus. Nature of the series: Chain termination of reverse transcription. The settings on record: evidenced by effect on avian myeloblastosis virus and Moloney murine leukaemia virus. The series is classed as biochemical.
Another series relates to human DNA polymerase. In words: Effect on human DNA polymerase activity. The series is classed as biochemical. Conditions: in vitro.

`Cc1cn([C@H]2C[C@H](N=[N+]=[N-])[C@@H](CO)O2)c(=O)[nH]c1=O`: the “conversion in vivo by cellular enzymes” value is “converted in vivo, by the action of cellular enzymes into the 5'-monophosphate”. In the series with HSVI, the “activity against HSVI” value is listed as “no appreciable activity”. Besides, the “splenomegaly caused by intravenously administered Rauscher Murine Leukaemia Virus” value in series [1] is “prevented”. The Cytopathic effects entry in the series with AIDV [2] is on record as “completely blocked”. Besides, the “concentration inhibiting the in vitro replication of HTLV-I” value in the series on HTLV-I was found to be 0.8 µg/mL. Moreover, the activity against vaccinia entry in the series with vaccinia is recorded as “no appreciable activity”. In addition, the “activity against varicella zoster virus (VZV)” value in series [3] is “no appreciable activity”. The “concentration effectively preventing infection of the H9 human lymphoblastoid cell-line by AIDV” value with AIDV [4] worked out at 0.013 µg/mL. Moreover, the “AIDV infection of PHA-stimulated white blood cells” value in the series on AIDV [5] (PHA-stimulated white blood cells) is “prevented at similarly low concentrations”. Moreover, the “AIDV infection of U937 human lymphoblastoid cells” value in the series on AIDV [5] (U937 human lymphoblastoid cells) is reported as “prevented at similarly low concentrations”. Further, the “AIDV infection of cultured peripheral blood lymphocytes” value in the series with AIDV [5] (cultured peripheral blood lymphocytes) is recorded as “prevented at similarly low concentrations”. Besides, the decrease in cells entry with AIDV [6] is on record as “no decrease”. The cellular toxicity result in series [7] is on record as “lack of cellular toxicity”. In addition, in series [7] (in vitro, Krieg et al.), the “formation of A-type particles of FLV complex” value is “increased” and the “release of C-type particles of FLV complex” value is “affected”.
For the molecule `Cc1cn([C@H]2C[C@H](N=[N+]=[N-])[C@@H](COP(=O)(O)OP(=O)(O)OP(=O)(O)O)O2)c(=O)[nH]c1=O` [3'-Azido-3'-deoxythymidine-5'-triphosphate], in [8], the “mechanism of inhibition of AIDV reverse transcriptase” value is recorded as “competitive inhibition” and the “activity of AIDV reverse transcriptase” value is “blocked”. For the same molecule, in series [8] ([…]), the “activity of AIDV reverse transcriptase” value is recorded as “inhibits”. Besides, in series [9], the “chain termination in the reverse transcription of AIDV” value was “effective chain terminator”. In the series on human DNA polymerase, the “effect on human DNA polymerase activity” value is listed as “negligible effect”.
For `Cc1cn([C@H]2C[C@H](N=[N+]=[N-])[C@@H](COP(=O)(O)O)O2)c(=O)[nH]c1=O` [Example 13], the “conversion in vivo by cellular enzymes” value was “further phosphorylated by other enzymes to form the triphosphate via the diphosphate”.

Values taken from patent EP0306597B2, “Antiviral nucleosides” (THE WELLCOME FOUNDATION LIMITED, priority 1985, dated 1986).
